Test results reported in ChEMBL document CHEMBL3885861, “Open TG-GATES”.

Species on record: Rattus norvegicus
Experiment: Open TG-GATES - Regimen: Single
Format: toxicity, organism-based, Sprague-Dawley
Parameters: regimen Single, gender Male, age 6 weeks
Settings: in vivo, po, 1000 mg/kg, route gavage, dose level Middle; for APTT / Bas / Eos / Fbg / Hb / Ht / Lym / MCH / MCHC / MCV / Mono / Neu / PT / Plat / RBC / Ret / WBC: tissue Blood; for KIDNEY_L / KIDNEY_R / KIDNEY_TOTAL: tissue Kidney; for LIVER: tissue Liver; for A/G / ALP / ALT / AST / BUN / CRE / Ca / Cl / DBIL / GLC / IP / K / LDH / Na / PL / RALB / TBIL / TC / TG / TP / gamma-GTP: tissue Plasma

CCOc1ccc(NC(=O)CC(C)O)cc1 (configuration not stated) [BUCETIN]
TERMINAL_BW (3 h): 211.2 g
APTT (3 h): 14.7 s
Bas (3 h): 0%
Eos (3 h): 1%
Fbg (3 h): 303 mg/dL
Hb (3 h): 13 g/dL
Ht (3 h): 38.6%
Lym (3 h): 78.4%
MCH (3 h): 20.6 pg
MCHC (3 h): 33.7%
MCV (3 h): 61.2 fL
Mono (3 h): 2%
Neu (3 h): 18.2%
PT (3 h): 13.5 s
Plat (3 h): 123 x10_4/uL
RBC (3 h): 630.8 x10_4/ul
Ret (3 h): 7.9%
WBC (3 h): 70.9 x10_2/uL
KIDNEY_L (3 h): 0.9 g
KIDNEY_R (3 h): 1 g
KIDNEY_TOTAL (3 h): 1.9 g
LIVER (3 h): 9.1 g
A/G (3 h): 0.9
ALP (3 h): 1363.2 IU/L
ALT (3 h): 33 IU/L
AST (3 h): 65.6 IU/L
BUN (3 h): 8.4 mg/dL
CRE (3 h): 0.1 mg/dL
Ca (3 h): 10.5 mg/dL
Cl (3 h): 104.6 meq/L
DBIL (3 h): 0.03 mg/dL
GLC (3 h): 182.2 mg/dL
IP (3 h): 9.1 mg/dL
K (3 h): 4.2 meq/L
LDH (3 h): 66.6 IU/L
Na (3 h): 141.4 meq/L
PL (3 h): 137.4 mg/dL
RALB (3 h): 2.5 g/dL
TBIL (3 h): 0.05 mg/dL
TC (3 h): 73.6 mg/dL
TG (3 h): 51.6 mg/dL
TP (3 h): 5.2 g/dL
gamma-GTP (3 h): 1.4 IU/L
TERMINAL_BW (6 h): 208.9 g
APTT (6 h): 19.8 s
Bas (6 h): 0%
Eos (6 h): 1%
Fbg (6 h): 317 mg/dL
Hb (6 h): 13.3 g/dL
Ht (6 h): 39.5%
Lym (6 h): 77%
MCH (6 h): 20.9 pg
MCHC (6 h): 33.6%
MCV (6 h): 62.1 fL
Mono (6 h): 2.6%
Neu (6 h): 19%
PT (6 h): 13.7 s
Plat (6 h): 118.7 x10_4/uL
RBC (6 h): 636.6 x10_4/ul
Ret (6 h): 7.8%
WBC (6 h): 61.8 x10_2/uL
KIDNEY_L (6 h): 0.9 g
KIDNEY_R (6 h): 0.9 g
KIDNEY_TOTAL (6 h): 1.8 g
LIVER (6 h): 8.3 g
A/G (6 h): 0.9
ALP (6 h): 1231.6 IU/L
ALT (6 h): 29 IU/L
AST (6 h): 64.4 IU/L
BUN (6 h): 8.6 mg/dL
CRE (6 h): 0.2 mg/dL
Ca (6 h): 10.7 mg/dL
Cl (6 h): 105.4 meq/L
DBIL (6 h): 0.036 mg/dL
GLC (6 h): 186.8 mg/dL
IP (6 h): 10.3 mg/dL
K (6 h): 4.2 meq/L
LDH (6 h): 57.8 IU/L
Na (6 h): 142 meq/L
PL (6 h): 139 mg/dL
RALB (6 h): 2.6 g/dL
TBIL (6 h): 0.062 mg/dL
TC (6 h): 82.2 mg/dL
TG (6 h): 28.4 mg/dL
TP (6 h): 5.5 g/dL
gamma-GTP (6 h): 1 IU/L
TERMINAL_BW (9 h): 204.6 g
APTT (9 h): 16.1 s
Bas (9 h): 0%
Eos (9 h): 0.6%
Fbg (9 h): 311.6 mg/dL
Hb (9 h): 13.6 g/dL
Ht (9 h): 40.3%
Lym (9 h): 78.8%
MCH (9 h): 21.1 pg
MCHC (9 h): 33.8%
MCV (9 h): 62.4 fL
Mono (9 h): 2.2%
Neu (9 h): 17.8%
PT (9 h): 14.2 s
Plat (9 h): 125.3 x10_4/uL
RBC (9 h): 646.4 x10_4/ul
Ret (9 h): 8.3%
WBC (9 h): 48.8 x10_2/uL
KIDNEY_L (9 h): 0.9 g
KIDNEY_R (9 h): 0.9 g
KIDNEY_TOTAL (9 h): 1.8 g
LIVER (9 h): 8.2 g
A/G (9 h): 0.9
ALP (9 h): 1308.4 IU/L
ALT (9 h): 29.6 IU/L
AST (9 h): 62.6 IU/L
BUN (9 h): 7.6 mg/dL
CRE (9 h): 0.1 mg/dL
Ca (9 h): 10.6 mg/dL
Cl (9 h): 106 meq/L
DBIL (9 h): 0.04 mg/dL
GLC (9 h): 196.6 mg/dL
IP (9 h): 9.8 mg/dL
K (9 h): 4 meq/L
LDH (9 h): 56.2 IU/L
Na (9 h): 142.4 meq/L
PL (9 h): 130.6 mg/dL
RALB (9 h): 2.6 g/dL
TBIL (9 h): 0.054 mg/dL
TC (9 h): 71.6 mg/dL
TG (9 h): 26.2 mg/dL
TP (9 h): 5.5 g/dL
gamma-GTP (9 h): 1 IU/L
TERMINAL_BW (24 h): 208.1 g
APTT (24 h): 23.5 s
Bas (24 h): 0%
Eos (24 h): 1%
Fbg (24 h): 268.6 mg/dL
Hb (24 h): 13.4 g/dL
Ht (24 h): 40.5%
Lym (24 h): 77.6%
MCH (24 h): 20.7 pg
MCHC (24 h): 33.2%
MCV (24 h): 62.3 fL
Mono (24 h): 3%
Neu (24 h): 18%
PT (24 h): 15.1 s
Plat (24 h): 125 x10_4/uL
RBC (24 h): 650.2 x10_4/ul
Ret (24 h): 7.5%
WBC (24 h): 77.3 x10_2/uL
KIDNEY_L (24 h): 1 g
KIDNEY_R (24 h): 1 g
KIDNEY_TOTAL (24 h): 1.9 g
LIVER (24 h): 8.9 g
A/G (24 h): 0.9
ALP (24 h): 1549 IU/L
ALT (24 h): 48 IU/L
AST (24 h): 92.2 IU/L
BUN (24 h): 16 mg/dL
CRE (24 h): 0.2 mg/dL
Ca (24 h): 10.8 mg/dL
Cl (24 h): 106.8 meq/L
DBIL (24 h): 0.03 mg/dL
GLC (24 h): 169.6 mg/dL
IP (24 h): 8.1 mg/dL
K (24 h): 4.2 meq/L
LDH (24 h): 93.8 IU/L
Na (24 h): 144.2 meq/L
PL (24 h): 154 mg/dL
RALB (24 h): 2.6 g/dL
TBIL (24 h): 0.07 mg/dL
TC (24 h): 86.4 mg/dL
TG (24 h): 66.2 mg/dL
TP (24 h): 5.6 g/dL
gamma-GTP (24 h): 1 IU/L
